Measured values reported in patent US7910692B2, “Immunogenic peptides and methods of use” (The United States of America as represented by the …, priority 2006, dated 2011).

Legend:
HLA-A2 molecules = target: T1, HLA-A2 molecules (Homo sapiens, UniProt P04439, D140Y/D185E/D98H/E176V/E277Q/G131W/G231S/I119V/I121R/I166T/I218V/L300P/L318F/N151K/N90K/P208A/P217A/Q86G/Q94H/R138H/R169H/T345S); assay: Peptide binding to HLA-A2: upregulation of HLA-A2 expression on T2 cells, flow cytometry; settings: for T2 binding, mean fluorescence intensity: T2 cells; for binding to HLA-A2 compared with native peptides: all concentrations, 0 to 25 μg/ml (FIG. 1A)
T1 construct: expressed in transfected cells; host or cells: T2 cells (provided by Dr. Peter Cresswell)
Method: The primary amino acid sequence of human PAGE4 was analyzed for consensus motifs for novel HLA-A2 binding peptides. Two 10-mer peptides (P16-25 designated as P16 and P59-68 designated as P59) and one 9-mer peptide (P84-92 designated as P84) were identified and evaluated (Table 1). […] For this reason, five different analogues of native peptides were synthesized and were investigated for their binding ability to HLA-A2-positive T2 cells along with the native P16, P59 and P84 peptides. A MUC-1 peptide and a CEA HLA-A3 binding peptide (CAP-7) were used as a positive and negative control, respectively (Tsang et al., J Natl Cancer Inst 1995; 87:982-90).

T-A-P16 cells = assay: Cytokine production by T-A-P16 cells stimulated with native and agonist P16 peptides (FIG. 2); format: cell-based, human; settings: vs native P16 or P16-2 peptide; 12.5 ul/ml; effector-to-APC 1:3; 24-hour supernatants (FIG. 2)
Method: FIG. 2 is a set for bar graphs illustrating the ability of autologous B cells pulsed with native and agonist P16 peptides to induce IFN-γ, Lymphotactin, Granzyme B, TNF-α and IL-2 production by T cell line derived from the native peptide (T-A-P16). T-A-P16 cells were used as effectors at in vitro stimulation (IVS-4). T cells were stimulated with irradiated autologous B cells pulsed with different PAGE4 analogues at a concentration of 12.5 ul/ml, and an effector-to-APC ratio of 1:3. Twenty-four-hour culture supernatants were collected and screened for the secretion of IFN-γ, Lymphotactin, Granzyme B, TNF-α and IL-2 using ELISA assay.
Detection of Cytokines: Supernatants of T cells stimulated for […] with peptide-pulsed autologous EBV-transformed B cells, in IL-2-free medium at various peptide concentrations, were screened for secretion of IFN-γ using an ELISA kit (BioSource International, Camarillo, Calif.) and lymphotactin using an ELISA assay (36). Granzyme B, TNF-α and IL-2 were determined by using a Cytokines and Chemokines-Multiplex Kit (Meso Scale Discovery, Geitherburg, Md.). The results were expressed in pg/ml.
Studies were then undertaken to examine the ability of the P16, P16-1, P16-2 peptides to activate the T-A-P16 cells, which were generated with the P16 native peptide. […] The P16-1 agonist was thus chosen for further study.

LNCaP cells = assay: Cold target inhibition assay; format: cell-based, human; settings: peptide-pulsed (12.5 μg/ml) unlabeled T2 cells; LNCaP:T2 1:10; E:T 15:1 (FIG. 5A)
Method: For the results presented in FIG. 5A, ^111In labeled LNCaP cells and unlabeled T2 cells were used at a ratio of 1:10. T2 cells were incubated with or without P16-1 peptide (12.5 μg/ml) in serum-free medium for 2 hours at 37° C. prior to the addition of the T-A-P16-1 cells. For the results presented in FIG. 5B, anti-HLA-A2 antibody (10 μg/ml and 50 μg/ml) or 110 μg/ml of control IgG antibody were added to ^111In labeled LNCaP cells for 1 hour at 37° C. prior to the addition of the T-A-P16-1 cells. Results are expressed in percent specific lysis at effector-to-target ratio of 15:1. Bars=SD. Statistically significant (P<0.05, two tailed t test).
To confirm the specificity and HLA-A2 restriction of CTL cytolysis, LNCaP cells were used as target in a cold target inhibition assay. […] Moreover, to determine whether the lysis was HLA-A2 restricted, antibody blocking experiments were carried out.

peptide-HLA-A2 complexes = target: T2, peptide-HLA-A2 complexes (Homo sapiens, UniProt P04439, D140Y/D185E/D98H/E176V/E277Q/G131W/G231S/I119V/I121R/I166T/I218V/L300P/L318F/N151K/N90K/P208A/P217A/Q86G/Q94H/R138H/R169H/T345S); assay: Stability of peptide-HLA-A2 complexes on T2 cells after brefeldin A block; format: binding; settings: 8-hour observation period; 12.5 μg/ml (FIG. 1B)
T2 construct: expressed in transfected cells; host or cells: T2 cells (provided by Dr. Peter Cresswell)
Method: FIGS. 1A and 1B are line graphs showing the binding of native PAGE4 peptides and their agonist peptides to HLA-A2 molecules. Peptides were analyzed for binding to T2 cell line as described in Example 1. For the results presented in FIG. 1A, peptides were used at concentrations of 0 to 25 μg/ml. P16 peptide (∘), P16-1 (●), P16-2 (▴), P84 (□) and P84-1 (▪), positive control (MUC-1 peptide) (+) and negative control (HLA-A3 binding peptide) (X). Results are expressed in mean fluorescence intensity (MFI). FIG. 1B presents a comparison of the stability of HLA-A2 peptide complexes of PAGE4 native and agonist peptides. T2 cells were incubated overnight with P16 peptide (∘), P16-1 (●), P16-2 (▴), P84 (□) and P84-1 (▪) peptides at a concentration of 12.5 μg/ml and then were washed free of unbound peptide and incubated with brefeldin A to block delivery of new class 1 molecules to the cell surface. At the indicated times, cells were stained for the presence of surface peptide-HLA-A2 complexes. Results are expressed in relative percentage of binding compared with 100% at time 0.
The analogues of P16 were designated P16-1 and P16-2, and the analogue of P84 was designated as P84-1. These peptides bound to HLA-A2 at higher levels than their native peptides. Studies were then conducted to examine the ability of these peptides to bind HLA-A2 at various concentrations. […] Studies were then undertaken to examine the stability of the peptide-MHC complex for the peptides P16, P84, P16-1, P16-2 and P84-1. Each peptide was incubated with T2 cells overnight, the unbound peptides were washed off, and the cells were then incubated with Brefeldin A to block delivery of new class I molecules to the cell surface. Cells were analyzed for the presence of peptide-HLA-A2 complexes at various time points.

T2 cells = assay: 111In release assay: lysis of peptide-pulsed T2 targets by PAGE4-specific T-cell lines; format: cell-based; settings: for % lysis (±SD) by T-A-P16 / % lysis (±SD) by T-B-P16-1: 16-hour 111In release, peptide 12.5 μg/ml, IVS4
Method: Cytotoxic Assay: Cytotoxicity assays were used as described previously (Tsange et al., J Natl Cancer Inst 1995; 87:982-90). A 6-hour or 16-hour ^111In release assay was used to determine T-cell mediated killing. Target cells were labeled with ^111In oxine (Amersham Health, Silver Spring, Md.) for 20 min at room temperature, and used at 3×10^3 cells per well, in 96-well rounded-bottom culture plates. ^111In released was measured by gamma counting. Spontaneous release was determined by incubating the target cells with medium alone, and complete lysis by incubating the target cells with 2.5% Triton X-100. Specific lysis (%)=[(observed release−spontaneous release)/(complete release−spontaneous release)]×100.
To examine the ability of the P16 and P16-1 peptides to activate the PAGE4-specific T-cells, T-A-P16 cells were subsequently analyzed for the ability to lyse peptide-pulsed targets.

T-B-P16-1 cells = assay: CD107a mobilization assay; format: cell-based, human; settings: T-B-P16-1 cells with T2 cells pulsed with 12.5 μg/ml peptide; 5 hours (FIG. 3)
Method: The expression of CD107a on the cell surface of CD8+ T cells and correlation with cytotoxic activity by PAGE4-specific T-cell line (T-B-P16-1) against P16-1 or P16 pulsed T2 cells. 0.5×10^6 effector cells/ml were incubated (FIG. 3a) alone, (FIG. 3b) with T2 cells without peptide, (FIG. 3c) with T2 cells pulsed with 12.5 μg/ml of P16 peptide, or (FIG. 3d) with T2 cells pulsed with 12.5 μg/ml of P16-1 peptide. Results are expressed in % of CD107a positive and CD8 positive cells. Numbers of the upper right are % of specific lysis±SD.
CD107a mobilization assay: The CD107a mobilization assay was performed as previously described (Rubio et al., Nat Med 2003; 9:1377-82). […] Samples were then fixed and the expression of CD107a on the cell surface of CD8^+ T cells was analyzed by flow cytometry.
In order to determine CTL degranulation which is a requisite process of perforin-granzyme mediated killing by activated CD8+ T cells, CD107a mobilization to the cell surface of CD8+ T cells was examined following activation with P16 or P16-1 peptides in addition to CTL assays. T-B-P16-1 cells were incubated with P16 native or P16-1 agonist peptide-pulsed T2 cells for 5 hours in the presence of monensin and analyzed for CD107a mobilization by flow cytometric analysis (FIG. 3). […]

HLFGYSWYK [CAP-7 peptide, reference compound]
T2 binding, mean fluorescence intensity (HLA-A2 molecules; peptide 25 μg/ml): 260 MFI

KTPPNPKHA (XXPPNPKHX; (16)..(16) Xaa can be Gln or Tyr; listed as Homo sapiens) [Peptide P84]
binding of native peptides to HLA-A2 molecules in the T2 assay (HLA-A2 molecules; T2 assay): bound to HLA-A2 molecules | T2 binding, mean fluorescence intensity (HLA-A2 molecules; peptide 25 μg/ml): 270 MFI | T2 binding, fold increase as compared with the negative control (HLA-A2 molecules; peptide 25 μg/ml, vs CAP-7 negative control): 1.04 fold

P16-1: agonist analogue of P16; amino acids 16 to 25 of SEQ ID NO: 1, X1 glutamine, X2 leucine (QLAPDVVAFV; (16)..(16) Xaa can be Gln or Tyr; listed as Homo sapiens) [Peptide P16-1]
IFN-γ, lymphotactin, Granzyme B, TNF-α and IL-2 production by T-A-P16 cells (T-A-P16 cells): higher levels | decrease in CTL activity of T-A-P16-1 cells against labeled LNCaP cells (LNCaP cells): 79.6% | stability of peptide-HLA-A2 complexes compared with native peptide complexes (peptide-HLA-A2 complexes): greater | % lysis (±SD) by T-A-P16 (T2 cells; effector T-A-P16, E:T 15:1): 16.7 (0.9) % | % lysis (±SD) by T-A-P16 (T2 cells; effector T-A-P16, E:T 30:1): 20.4 (1.9) % | lysis of peptide-pulsed T2 cells by T-A-P16 compared with P16-pulsed T2 cells (T2 cells; effector T-A-P16, two E:T ratios): higher | % lysis (±SD) by T-B-P16-1 (T2 cells; effector T-B-P16-1, E:T 15:1): 25.8 (0.6) % | % lysis (±SD) by T-B-P16-1 (T2 cells; effector T-B-P16-1, E:T 30:1): 34.7 (0.04) % | lysis of peptide-pulsed T2 cells by T-B-P16-1 compared with P16-pulsed T2 cells (T2 cells; effector T-B-P16-1, two E:T ratios): to a greater extent | CD8+ T cells expressing surface CD107a compared with P16 native peptide (T-B-P16-1 cells): Higher number | binding to HLA-A2 compared with native peptides (HLA-A2 molecules): higher levels

P16-2: analogue of P16; amino acids 16 to 25 of SEQ ID NO: 1, X1 tyrosine, X2 leucine (YLAPDVVAFV; (16)..(16) Xaa can be Gln or Tyr; listed as Homo sapiens) [Peptide P16-2]
stability of peptide-HLA-A2 complexes compared with native peptide complexes (peptide-HLA-A2 complexes): more stable | binding to HLA-A2 compared with native peptides (HLA-A2 molecules): higher levels

P84-1: analogue of P84; amino acids 84-92 of SEQ ID NO: 1, X6 tyrosine, X7 leucine, X8 valine (YLPPNPKHV; (16)..(16) Xaa can be Gln or Tyr; listed as Homo sapiens) [Peptide P84-1]
stability of peptide-HLA-A2 complexes compared with native peptide complexes (peptide-HLA-A2 complexes): more stable | binding to HLA-A2 compared with native peptides (HLA-A2 molecules): higher levels
